Assay results from patent US20030181434A1, “AlphaAED and betaAED regulation of nuclear transcription, gene regulation, and/or gene expression” (priority 2002, published 2003).

How the values were obtained:
PPARγ = assay: Western blot of PPARγ level in Dunning R3327 AT-1 rat prostate tumors after treatment; assay type: in vivo; details: untreated control = 100 R.A.U.
From the text: (§1) Dunning R3327, AT-1, rat prostate cancer, is a completely hormone-refractory tumor cell line. […] It lacks measurable quantities of receptor for androgens and estrogens. The clinical behavior of this tumor is not influenced by presence or absence of sex steroids (Isaacs et al, Prostate 9:261-281 (1986)).
(§2) After an initial passage in young male rats, the tumor was implanted dorsally into young intact (not castrated) male Copenhagen-Fischer rats (Copenhagen, Denmark) of approximately 250 grams. Tumor transplants were allowed to grow until palpable and visible and reached a mean size of 10 mm in diameter prior to treatment. The vehicle for the drug was Polyethylene glycol 400 and ethanol 1:1. The drug was injected adjacent to the tumor. […]
(§3) Thawed tumors were homogenized in ice cold lysis-buffer (160 mM NaCl, 10 mM […], 2 mM […], 0.5% Triton X-100, 100 μg/ml phenylmetylsulfonyl fluoride, 1 μg/ml leupeptin and 2 μg/ml aprotinin), placed on ice for 15 minutes and following clarification centrifuged for 10 minutes at 13,000 g. Protein content of homogenates were determined by Lowry assay Q.
(§4) Protein in lysates ([…]) were separated by electrophoresis using 8% SDS-PAGE, the isolated proteins were transferred onto a nitrocellulose membrane (Amersham) in a trans-blot electrophoretic transfer cell (Bio-Rad Laboratories). […] Optical density was measured densitometrically. […]

COX-2 = assay: Western blot of COX-2 level in Dunning R3327 AT-1 rat prostate tumors after treatment; assay type: in vivo; details: untreated control = 100 R.A.U.
From the text: as §1, §2, §3, §4

NF-κB = tested on: NF-κB
From the text: as §1, §2, §3, §4

[1] = AT-1 tumor samples, 96 hours after single 10 mg dose injected adjacent to tumor
[2] = AT-1 tumor samples at 19 days, βAED single 80 mg dose, or αAED 10 mg then βAED 80 mg after 96 hours

Row | Structure (SMILES) | PPARγ level, mean value (PPARγ; [1]) [R.A.U.] | COX-2 level, mean value (COX-2; [1]) [R.A.U.] | effect on levels of NF-κB (in words) (NF-κB; finding stated in the description, no value given) | PPARγ level, mean value (PPARγ; [2]) [R.A.U.] | COX-2 level, mean value (COX-2; [2]) [R.A.U.] | NF-κB level, mean value (NF-κB; AT-1 tumor samples at 19 days after single 80 mg dose, untreated control = 100 R.A.U.) [R.A.U.]
1 | C[C@]12CC[C@H]3[C@@H](CC=C4C[C@@H](O)CC[C@@]43C)[C@@H]1CC[C@H]2O [αAED, Δ5-Androstene-3β, 17α-diol] | 190 | 203 | increases |  |  | 
2 | C[C@]12CC[C@H]3[C@@H](CC=C4C[C@@H](O)CC[C@@]43C)[C@@H]1CC[C@@H]2O [βAED, Δ5-Androstene-3β, 17β-diol] |  |  |  | 47 | 135 | 68±13.6
